{
  "source": "patent US20240261312A1",
  "about": "(priority 2021, published 2024)",
  "key": {"[1]": {"settings": "cited from earlier work"}, "[2]": {"settings": "cited from earlier work", "remark": "listed apart in the source"}, "[3]": {"settings": "in horses; cited from earlier work"}, "[4]": {"settings": "in adult dogs; cited from earlier work"}, "[5]": {"settings": "in turkeys; cited from earlier work"}, "[6]": {"settings": "in cats; cited from earlier work"}, "bovine coronavirus (BCV)": {"test_system": "bovine coronavirus (BCV)", "format": "cell-based", "settings": "HRT cells, therapeutic"}, "[7]": {"test_system": "bovine viral diarrhea virus (BVDV)", "format": "cell-based", "settings": "MDBK cells, 48-h time point"}, "[8]": {"test_system": "bovine viral diarrhea virus (BVDV)", "format": "cell-based", "settings": "30 min preincubation, 0.1 to 1.0 ug/ml oleandrin"}, "rhinovirus": {"test_system": "rhinovirus", "experiment": "Antiviral activity against rhinovirus", "format": "cell-based", "settings": "concentrations and assays employed herein"}, "[9]": {"test_system": "Human adenovirus (HAdv-C5)", "experiment": "Antiviral activity against human adenovirus", "format": "cell-based"}, "dengue fever virus": {"test_system": "dengue fever virus", "experiment": "Antiviral activity against dengue fever virus", "format": "cell-based"}, "[10]": {"test_system": "Omsk hemorrhagic fever virus", "format": "cell-based"}, "[11]": {"test_system": "Kyasanur forest disease virus", "format": "cell-based"}, "[12]": {"test_system": "Alkhuma hemorrhagic fever virus", "format": "cell-based"}, "HRT cells": {"test_system": "HRT cells", "settings": "concentrations of up to 1.0 microg/mL"}, "MDBK cells": {"test_system": "MDBK cells", "settings": "concentrations of up to 1.0 microg/mL"}, "MARC 145 cells": {"test_system": "MARC 145 cells", "settings": "concentrations of up to 1.0 microg/mL"}, "BT cells": {"test_system": "BT cells", "settings": "concentrations of up to 1.0 microg/mL"}, "cells": {"test_system": "cells", "settings": "up to concentrations of 1 microg/mL"}, "murine coronavirus": {"test_system": "murine coronavirus", "settings": "reported; cited from earlier work"}},
  "note": "Where “and” joins values, the source holds several entries; their conditions need not be identical. Equal entries are not always repeated. Where two headings read alike, the source gives them in different places.",
  "data": [
    {"smiles": "C[C@H]1O[C@@H](O[C@H]2[C@@H](O)C[C@H](O[C@H]3[C@@H](O)C[C@H](O[C@H]4CC[C@@]5(C)[C@H](CC[C@@H]6[C@@H]5C[C@@H](O)[C@]5(C)[C@@H](C7=CC(=O)OC7)CC[C@]65O)C4)O[C@@H]3C)O[C@@H]2C)C[C@H](O)[C@@H]1O", "note": "[digoxin]", "values": [
      {"measurement": "half-life", "setting": "[1]; in calves", "result": "5 to 7", "unit": "h"},
      {"measurement": "half-life", "setting": "[1]; in cattle", "result": "7 to 9", "unit": "h"},
      {"measurement": "half-life", "setting": "[2]; in ewes and lambs", "result": "13 to 15", "unit": "h"},
      {"measurement": "half-life", "setting": "[2]; in sheep", "result": "7 to 8", "unit": "h"},
      {"measurement": "half-life", "setting": "[3]", "result": "16 to 18 h and 10 to 23 h"},
      {"measurement": "half-life", "setting": "[4]", "result": "4 to 6", "unit": "h"},
      {"measurement": "half-life", "setting": "[5]", "result": "10 to 12", "unit": "h"},
      {"measurement": "half-life", "setting": "[6]", "result": "9 to 12", "unit": "h"}
    ]},
    {"smiles": "CO[C@H]1C[C@H](O[C@H]2CC[C@@]3(C)[C@H](CC[C@@H]4[C@@H]3CC[C@]3(C)[C@@H](C5=CC(=O)OC5)[C@@H](OC(C)=O)C[C@]43O)C2)O[C@@H](C)[C@@H]1O", "note": "[oleandrin]", "values": [
      {"measurement": "concentration range over which efficacious", "setting": "bovine coronavirus (BCV)", "result": "≥ 0.01", "unit": "µg/mL"},
      {"measurement": "reduction of viral infectivity relative to control", "setting": "[7]", "result": "98-100%"},
      {"measurement": "inhibition of infectivity of progeny", "setting": "[8]", "result": "85-93%"},
      {"measurement": "antiviral activity (inhibition of viral replication)", "setting": "rhinovirus", "result": "inactive"},
      {"measurement": "antiviral activity", "setting": "[9]", "result": "inactive"},
      {"measurement": "antiviral activity", "setting": "dengue fever virus", "result": "inactive"},
      {"measurement": "antiviral activity", "setting": "[10]", "result": "inactive"},
      {"measurement": "antiviral activity", "setting": "[11]", "result": "inactive"},
      {"measurement": "antiviral activity", "setting": "[12]", "result": "inactive"},
      {"measurement": "toxicity to HRT cells", "setting": "HRT cells", "result": "not toxic"},
      {"measurement": "toxicity to MDBK cells", "setting": "MDBK cells", "result": "not toxic"},
      {"measurement": "toxicity to MARC 145 cells", "setting": "MARC 145 cells", "result": "not toxic"},
      {"measurement": "toxicity to BT cells", "setting": "BT cells", "result": "not toxic"},
      {"measurement": "toxicity by release of lactate dehydrogenase", "setting": "cells", "result": "no additional toxicity over control vehicle"},
      {"measurement": "antiviral activity", "setting": "murine coronavirus", "result": "inactive"}
    ]}
  ]
}
